Laboratory results from patent US9320276B2, “N-hetarylmethyl pyrazolylcarboxamides” (BAYER INTELLECTUAL PROPERTY GMBH, priority 2010, dated 2016).

Tested on: not listed separately
Experiment: logP by HPLC on reversed-phase column (EEC Directive 79/831 Annex V.A8)
Format: physicochemical
Settings: HPLC on reversed-phase column (C 18), 40° C., 0.1% aqueous formic acid and acetonitrile, linear gradient 10% to 90% acetonitrile
Experimental: In table 1, the logP values were determined in accordance with EEC Directive 79/831 Annex V.A8 by HPLC (High Performance Liquid Chromatography) on a reversed-phase column (C 18), using the method described below: Temperature: 40° C.; Mobile phases: 0.1% aqueous formic acid and acetonitrile; linear gradient from 10% acetonitrile to 90% acetonitrile. Calibration was carried out using unbranched alkan-2-ones (comprising 3 to 16 carbon atoms) with known logP values (determination of the logP values by the retention times using linear interpolation between two successive alkanones). lambda-max-values were determined using UV-spectra from 200 nm to 400 nm and the peak values of the chromatographic signals.

SMILES	logP
CC(C1CC1)N(Cc1ccco1)C(=O)c1c(C(F)F)nn(C)c1Cl (stereo not shown) [Example 2]	2.98
CC(C1CC1)N(Cc1ccco1)C(=O)c1c(C(F)F)nn(C)c1F (stereo not shown) [Example 3]	2.82
CN(Cc1ccco1)C(=O)c1c(C(F)F)nn(C)c1Cl [Example 6]	2.02
Cn1nc(C(F)F)c(C(=O)N(Cc2ccco2)C2CCCCC2)c1Cl [Example 7]	3.35
Cn1nc(C(F)F)c(C(=O)N(Cc2ccco2)C2CCCCC2)c1F [Example 8]	3.21
Cn1nc(C(F)F)c(C(=O)NCc2ccco2)c1F [Example 10]	1.66
Cn1nc(C(F)F)c(C(=O)N(Cc2cccnc2)CC(F)(F)F)c1F [Example 14]	1.20
Cn1nc(C(F)F)c(C(=O)NC2(c3cccnc3)CCCC2)c1Cl [Example 17]	0.96
Cn1nc(C(F)F)c(C(=O)NC2(c3cccnc3)CCCC2)c1F [Example 18]	0.84
CC(C)C(c1cncnc1)N(C)C(=O)c1c(C(F)F)nn(C)c1Cl (stereo not shown) [Example 19]	1.76
Cc1ccoc1CN(C)C(=O)c1c(C(F)F)nn(C)c1F [Example 22]	2.18
Cc1occc1C1(NC(=O)c2c(C(F)F)nn(C)c2Cl)CCCC1 [Example 23]	3.11
Cc1occc1C1(NC(=O)c2c(C(F)F)nn(C)c2F)CCCC1 [Example 24]	2.92
Cn1ccc(C2(NC(=O)c3c(C(F)F)nn(C)c3Cl)CCCC2)n1 [Example 25]	1.93
Cn1ccc(C2(NC(=O)c3c(C(F)F)nn(C)c3F)CCCC2)n1 [Example 26]	2.25
CCN(Cc1nonc1C)C(=O)c1c(C(F)F)nn(C)c1Cl [Example 27]	2.20
Cn1nc(C(F)F)c(C(=O)NC2(c3cccs3)CCCC2)c1Cl [Example 33]	3.13
Cc1ccsc1CN(C(=O)c1c(C(F)F)nn(C)c1F)C1CCCC1 [Example 38]	3.46
C=CCN(Cc1csc(C)n1)C(=O)c1c(C(F)F)nn(C)c1F [Example 44]	2.07
CN(Cc1cccnc1Cl)C(=O)c1c(C(F)F)nn(C)c1F [Example 52]	1.72

SMILES	logP
CN(Cc1ccnc(Cl)c1)C(=O)c1c(C(F)F)nn(C)c1Cl [Example 53]	1.91
Cn1nc(C(F)F)c(C(=O)N(Cc2ccc(Cl)nc2)C2CCCC2)c1F [Example 57]	2.80
COCCN(Cc1ccc(Cl)nc1)C(=O)c1c(C(F)F)nn(C)c1Cl [Example 58]	2.15
CC(C)N(Cc1ccc(Cl)nc1)C(=O)c1c(C(F)F)nn(C)c1F [Example 65]	2.33
Cn1nc(C(F)F)c(C(=O)N(Cc2ccc(Cl)nc2)C2CC2)c1Cl [Example 66]	2.39
Cn1nc(C(F)F)c(C(=O)NC2(c3cc4ccccc4o3)CCCC2)c1Cl [Example 74]	3.70
CCN(Cc1cnc(Cl)s1)C(=O)c1c(C(F)F)nn(C)c1Cl [Example 77]	2.35
CCN(Cc1c(C)nn(CC)c1C)C(=O)c1c(C(F)F)nn(C)c1Cl [Example 78]	1.82
CCN(Cc1c(C)nn(CC)c1C)C(=O)c1c(C(F)F)nn(C)c1F [Example 79]	1.72
Cn1nc(C(F)F)c(C(=O)NCc2cc3ccccc3s2)c1F [Example 84]	2.75
Cn1nc(C(F)F)c(C(=O)NCc2csc3ccccc23)c1Cl [Example 87]	2.90
Cn1nc(C(F)F)c(C(=O)N(Cc2nc3ccccc3s2)C2CC2)c1Cl [Example 97]	2.80
Cc1onc(-c2ccccc2)c1CN(C)C(=O)c1c(C(F)F)nn(C)c1Cl [Example 129]	2.59
Cc1onc(-c2ccccc2)c1CN(C)C(=O)c1c(C(F)F)nn(C)c1F [Example 130]	2.44
CN(Cc1cscc1Br)C(=O)c1c(C(F)F)nn(C)c1Cl [Example 134]	2.70
Cn1nc(C(F)F)c(C(=O)N(Cc2sccc2Br)C2CC2)c1F [Example 135]	3.11
Cn1nc(C(F)F)c(C(=O)N(Cc2sccc2Br)C2CC2)c1Cl [Example 136]	3.29
Cc1nc(-c2ccccc2)sc1CN(C)C(=O)c1c(C(F)F)nn(C)c1Cl [Example 148]	2.90
CN(Cc1cc(-c2ccc(Cl)cc2)no1)C(=O)c1c(C(F)F)nn(C)c1F [Example 152]	3.04

Now from value to compound:

logP	SMILES
1.87	CN(Cc1ccco1)C(=O)c1c(C(F)F)nn(C)c1F [Example 1]
2.45	Cn1nc(C(F)F)c(C(=O)N(Cc2ccco2)C2CC2)c1Cl [Example 4]
1.86	Cn1nc(C(F)F)c(C(=O)NCc2ccco2)c1Cl [Example 9]
2.86	Cn1nc(C(F)F)c(C(=O)NC2(c3ccco3)CCCC2)c1Cl [Example 11]
2.70	Cn1nc(C(F)F)c(C(=O)NC2(c3ccco3)CCCC2)c1F [Example 12]
1.37	Cn1nc(C(F)F)c(C(=O)N(Cc2cccnc2)CC(F)(F)F)c1Cl [Example 13]
1.76	Cn1nc(C(F)F)c(C(=O)N(Cc2cccnc2)C2CCCCCC2)c1Cl [Example 15]
1.66	Cn1nc(C(F)F)c(C(=O)N(Cc2cccnc2)C2CCCCCC2)c1F [Example 16]
1.65	CC(C)C(c1cncnc1)N(C)C(=O)c1c(C(F)F)nn(C)c1F (stereo not shown) [Example 20]
2.32	Cc1ccoc1CN(C)C(=O)c1c(C(F)F)nn(C)c1Cl [Example 21]
2.90	CCCN(Cc1cccs1)C(=O)c1c(C(F)F)nn(C)c1Cl [Example 29]
2.77	CCCN(Cc1cccs1)C(=O)c1c(C(F)F)nn(C)c1F [Example 30]
2.73	Cn1nc(C(F)F)c(C(=O)N(Cc2cccs2)C2CC2)c1Cl [Example 31]
3.21	Cc1cc(C(C)N(C(=O)c2c(C(F)F)nn(C)c2F)C2CC2)c(C)o1 (stereo not shown) [Example 35]
3.37	Cc1cc(C(C)N(C(=O)c2c(C(F)F)nn(C)c2Cl)C2CC2)c(C)o1 (stereo not shown) [Example 36]
2.58	Cc1ccsc1CN(C)C(=O)c1c(C(F)F)nn(C)c1Cl [Example 41]
2.20	C=CCN(Cc1csc(C)n1)C(=O)c1c(C(F)F)nn(C)c1Cl [Example 43]
1.69	CCN(Cc1cn(CC)nc1C)C(=O)c1c(C(F)F)nn(C)c1F [Example 45]
1.79	CCN(Cc1cn(CC)nc1C)C(=O)c1c(C(F)F)nn(C)c1Cl [Example 46]
1.31	CCn1cc(CNC(=O)c2c(C(F)F)nn(C)c2F)c(C)n1 [Example 47]
1.87	CN(Cc1cccnc1Cl)C(=O)c1c(C(F)F)nn(C)c1Cl [Example 51]

logP	SMILES
1.76	CN(Cc1ccnc(Cl)c1)C(=O)c1c(C(F)F)nn(C)c1F [Example 54]
1.90	CN(Cc1cncc(Cl)c1)C(=O)c1c(C(F)F)nn(C)c1Cl [Example 55]
1.76	CN(Cc1cncc(Cl)c1)C(=O)c1c(C(F)F)nn(C)c1F [Example 56]
2.02	COCCN(Cc1ccc(Cl)nc1)C(=O)c1c(C(F)F)nn(C)c1F [Example 59]
2.23	CCN(Cc1ccc(Cl)nc1)C(=O)c1c(C(F)F)nn(C)c1Cl [Example 60]
2.10	CCN(Cc1ccc(Cl)nc1)C(=O)c1c(C(F)F)nn(C)c1F [Example 61]
1.98	CN(Cc1ccc(Cl)nc1)C(=O)c1c(C(F)F)nn(C)c1Cl [Example 62]
1.84	CN(Cc1ccc(Cl)nc1)C(=O)c1c(C(F)F)nn(C)c1F [Example 63]
2.49	CC(C)N(Cc1ccc(Cl)nc1)C(=O)c1c(C(F)F)nn(C)c1Cl [Example 64]
2.94	Cn1nc(C(F)F)c(C(=O)N(Cc2ccc(Cl)nc2)C2CCCC2)c1Cl [Example 68]
1.82	Cn1nc(C(F)F)c(C(=O)NCc2ccc(Cl)nc2)c1Cl [Example 69]
2.21	CCN(Cc1cnc(Cl)s1)C(=O)c1c(C(F)F)nn(C)c1F [Example 76]
2.32	CN(Cc1ccc2nsnc2c1)C(=O)c1c(C(F)F)nn(C)c1Cl [Example 99]
2.59	CC(C)Oc1ccc(CN(C)C(=O)c2c(C(F)F)nn(C)c2Cl)cn1 [Example 101]
2.71	CN(Cc1nc(-c2ccccc2)no1)C(=O)c1c(C(F)F)nn(C)c1Cl [Example 113]
2.90	Cn1nc(C(F)F)c(C(=O)N(Cc2cnc(Cl)cc2Cl)C2CC2)c1Cl [Example 119]
3.63	CN(Cc1sc2ccccc2c1Cl)C(=O)c1c(C(F)F)nn(C)c1Cl [Example 141]
3.94	Cc1cc(CN(C(=O)c2c(C(F)F)nn(C)c2Cl)C2CC2)c(C)n1-c1ccccc1 [Example 146]
3.25	CC(C)N(Cc1cnn(-c2ccc(Cl)cc2)c1)C(=O)c1c(C(F)F)nn(C)c1F [Example 150]
3.59	CSc1ncc(C(C(C)C)N(C)C(=O)c2c(C(F)F)nn(C)c2Cl)c(C(F)(F)F)n1 (stereo not shown) [Example 158]

Tested on: Pyrenophora teres
Experiment: in vivo preventive test on Pyrenophora teres (barley)
Settings: 500 ppm of active ingredient, evaluated 7-9 days after inoculation
Experimental: Solvent: 49 parts by weight of N,N-dimethylformamide Emulsifier: 1 part by weight of alkylaryl polyglycol ether To produce a suitable preparation of active compound, 1 part by weight of active compound is mixed with the stated amounts of solvent and emulsifier, and the concentrate is diluted with water to the desired concentration. To test for preventive activity, young plants are sprayed with the preparation of active compound at the stated rate of application. One day after this treatment, the plants are inoculated with an aqueous spore suspension of Pyrenophora teres. The plants remain for 48 hours in an incubation cabinet at 22° C. and a relative atmospheric humidity of 100%. Then the plants are placed in a greenhouse at a temperature of approximately 20° C. and a relative atmospheric humidity of approximately 80%. The test is evaluated 7-9 days after the inoculation. 0% means an efficacy which corresponds to that of the untreated control while an efficacy of 100% means that no disease is observed.

SMILES	Efficacy [%]
Cn1nc(C(F)F)c(C(=O)N(Cc2cccnc2)C2CCCCCC2)c1Cl [Example 15]	75
Cc1ccoc1CN(C)C(=O)c1c(C(F)F)nn(C)c1Cl [Example 21]	80
Cc1occc1C1(NC(=O)c2c(C(F)F)nn(C)c2Cl)CCCC1 [Example 23]	100
Cn1nc(C(F)F)c(C(=O)N(Cc2cccs2)C2CC2)c1Cl [Example 31]	100
Cc1cc(C(C)N(C(=O)c2c(C(F)F)nn(C)c2F)C2CC2)c(C)o1 (stereo not shown) [Example 35]	100
